One experiment has as its target T1, human 5-HT2C receptor (Homo sapiens, UniProt P28335).
T1 sequence (P28335 33-458): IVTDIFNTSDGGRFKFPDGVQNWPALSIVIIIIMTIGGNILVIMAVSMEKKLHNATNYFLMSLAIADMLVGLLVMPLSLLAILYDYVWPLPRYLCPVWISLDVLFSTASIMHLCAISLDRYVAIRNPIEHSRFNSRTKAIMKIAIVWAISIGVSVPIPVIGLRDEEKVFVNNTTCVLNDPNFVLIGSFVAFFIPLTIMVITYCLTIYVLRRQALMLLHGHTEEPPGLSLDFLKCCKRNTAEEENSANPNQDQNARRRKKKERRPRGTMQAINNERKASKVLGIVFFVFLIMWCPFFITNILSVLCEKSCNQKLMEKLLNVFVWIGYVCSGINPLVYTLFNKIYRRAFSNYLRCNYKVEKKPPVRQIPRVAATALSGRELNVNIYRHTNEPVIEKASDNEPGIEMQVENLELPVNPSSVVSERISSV
In words: 5-HT2C receptor-stimulated calcium mobilization (FLIPR) in CHO cells.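 For all read-outs here: Fluo-3-AM fluorescence read on FLIPR every 1 s, agonist added after 10 baseline reads, response taken as peak minus lowest raw fluorescence count.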 In kind it is cell-based. Particulars: for Emax: CHO; for EC50: calcium mobilization, CHO cells stably expressing human 5-HT2C, read-out: 5-HT2C Function EC50. Background: A change in cytosolic calcium serves as a functional read-out for many receptors and channels.

Experiment [1] deals with T2, human 5-hydroxytryptamine-2C (h5-HT2C) receptor (Homo sapiens, UniProt P28335).
T2 construct: expressed in transfected cells; host or cells: CHO (Chinese Hamster Ovary) cells; membranes
T2 sequence (P28335 33-458): T1 sequence (P28335 33-458)
In words: [125I]DOI binding to membranes of CHO cells expressing the human 5-HT2C receptor. The conditions noted are these: [125I]DOI radioligand, CHO cell membranes, room temperature 60 min; read-out: 5-HT2C Affinity Ki.

[2] abbreviates: percentage of the response observed with a maximally effective concentration of 5-HT, read-out: 5-HT2C Function Emax (%).
[3] abbreviates: percentage of the response observed with a maximally effective concentration of 5-HT.

Like-named read-outs stand apart in the source and are kept apart here.

The term EC50 denotes the concentration that produces a half-maximal response. By Ki is commonly meant a measure of affinity in units of concentration, obtained from inhibition or displacement. `Cc1ccccc1-c1cccc2c1OC(CN)C2` (single isomer, unassigned; (+)) [Example 48, (+)-1-[7-(2-methylphenyl)-2,3-dihydro-1-benzofuran-2-yl]methanamine]: on human 5-HT2C receptor (setting [2]), the Emax worked out at 100%. On human 5-HT2C receptor, the EC50 worked out at 2.4 nM. In experiment [1], the Ki worked out at 0.3 nM.

Turning to `NCC1Cc2cccc(-c3ccccc3)c2O1` (single isomer, unassigned; (+)) [Example 37], on human 5-HT2C receptor (setting [2]), the Emax amounted to 100%. In addition, the EC50 on human 5-HT2C receptor stood at 1 nM. Moreover, in experiment [1], the Ki came out at 1 nM.

Regarding `COc1cccc(-c2cccc3c2OC(CN)C3)c1OC` (single isomer, unassigned; (-)) [Example 156], at human 5-HT2C receptor (setting [2]), the Emax is 90%. The EC50 at human 5-HT2C receptor is 6 nM. Further, the Ki in experiment [1] came to 4.7 nM.

With `CNCC1Cc2cc(C)cc(-c3ccc(C)cc3)c2O1` (racemic) [Example 480, (±)-{[7-(4-methylphenyl)-5-methyl-2,3-dihydro-1-benzofuran-2-yl]methyl}methylamine], the Emax at human 5-HT2C receptor (setting [2]) is 70%. For the same molecule, at human 5-HT2C receptor, the EC50 amounted to 251 nM. Besides, the inhibitory constant (Ki) in experiment [1] was found to be 4.4 nM.

As for `CNCC1Cc2cc(OC)cc(-c3c(C)cccc3C)c2O1` (racemic) [Example 504, (±)-{[7-(2,6-dimethylphenyl)-5-methoxy-2,3-dihydro-1-benzofuran-2-yl]methyl}methylamine], the Emax at human 5-HT2C receptor (setting [2]) is 90%. Further, the EC50 at human 5-HT2C receptor was found to be 27 nM. Also, in experiment [1], the Ki is 1.2 nM.

As for `CNCC1Cc2cc(F)cc(-c3c(Cl)cccc3Cl)c2O1` (racemic) [Example 454, (±)-{[7-(2,6-dichlorophenyl)-5-fluoro-2,3-dihydro-1-benzofuran-2-yl]methyl}methylamine], the Emax at human 5-HT2C receptor (read-out: 5-HT2C Function Emax (%), percentage of the response observed with a maximally effective concentration of 5-HT) amounted to 90%. For the same molecule, on human 5-HT2C receptor, the EC50 was 0.39 nM. Besides, the Ki in experiment [1] was found to be 0.26 nM.

With `CNCC1Cc2cc(OC)cc(-c3cc(C)ccc3C)c2O1` (racemic) [Example 500, (±)-{[7-(2,5-dimethylphenyl)-5-methoxy-2,3-dihydro-1-benzofuran-2-yl]methyl}methylamine], the Emax at human 5-HT2C receptor (setting [2]) stood at 80%. At human 5-HT2C receptor, the concentration for a half-maximal effect (EC50) amounted to 256 nM. Also, in experiment [1], the Ki is 86 nM.

For `Cc1ccccc1-c1cc(Cl)cc2c1OC(CN)C2` (single isomer, unassigned; (-)) [Example 97, (−)-1-[5-chloro-7-(2-methylphenyl)-2,3-dihydro-1-benzofuran-2-yl]methanamine], the EC50 on human 5-HT2C receptor was 577 nM. In addition, at human 5-HT2C receptor (setting [3]), the “5-HT2C Function Emax (%)” value stood at 60%. Further, the inhibition constant Ki in experiment [1] was determined as 4 nM.

Turning to `NCC1Cc2cccc(-c3cccc(Cl)c3)c2O1` (racemic) [Example 65, (±)-1-[7-(3-chlorophenyl)-2,3-dihydro-1-benzofuran-2-yl]methanamine], the Emax on human 5-HT2C receptor (setting [2]) is 100%. Besides, the EC50 on human 5-HT2C receptor worked out at 187 nM. Further, the Ki in experiment [1] amounted to 11 nM.

Turning to `COc1cc2c(c(-c3ccc(F)cc3F)c1)OC(CN)C2` (racemic) [Example 364, (±)-{[7-(2,4-difluorophenyl)-5-methoxy-2,3-dihydro-1-benzofuran-2-yl]methyl}amine], the Emax at human 5-HT2C receptor (setting [2]) was 85%. Further, the EC50 at human 5-HT2C receptor was 62 nM. Further, the Ki in experiment [1] came to 0.9 nM.

On to `Cc1ccc(-c2cccc3c2OC(CN)C3)cc1` (racemic) [Example 70, (±)-1-[7-(4-methylphenyl)-2,3-dihydro-1-benzofuran-2-yl]methanamine], for which, on human 5-HT2C receptor (setting [2]), the Emax came out at 100%. Besides, on human 5-HT2C receptor, the EC50 came to 22 nM. For the same molecule, the Ki in experiment [1] came to 2 nM.

For `CNCC1Cc2cc(F)cc(-c3c(C)cccc3C)c2O1` (single isomer, unassigned; (-)) [Example 559, (−)-{[7-(2,6-dimethylphenyl)-5-fluoro-2,3-dihydro-1-benzofuran-2-yl]methyl}methylamine], the concentration for a half-maximal effect (EC50) on human 5-HT2C receptor was 7 nM. Further, the “5-HT2C Function Emax (%)” value at human 5-HT2C receptor (setting [3]) came out at 90%. In addition, the Ki in experiment [1] is 0.3 nM.

As for `CNCC1Cc2cccc(-c3cccc(F)c3)c2O1` (racemic) [Example 415, (±)-[(N-methyl-1-[7-(3-fluorophenyl)-2,3-dihydro-1-benzofuran-2-yl]methanamine], the Emax on human 5-HT2C receptor (setting [2]) was 70%. Further, the EC50 at human 5-HT2C receptor was 109 nM. The Ki in experiment [1] came to 1.1 nM.

Take `NCC1Cc2cccc(-c3ccccc3F)c2O1` (racemic) [Example 50, (±)-1-[7-(2-fluorophenyl)-2,3-dihydro-1-benzofuran-2-yl]methanamine]: the Emax on human 5-HT2C receptor (setting [2]) was determined as 100%. Also, at human 5-HT2C receptor, the EC50 was found to be 14 nM. Besides, the Ki in experiment [1] was determined as 1 nM.

As to `NCC1Cc2cc(Cl)cc(-c3cccc(F)c3F)c2O1` (single isomer, unassigned) [Example 246, (±)-{[5-chloro-7-(2,3-difluorophenyl)-2,3-dihydro-1-benzofuran-2-yl]methyl}amine], the EC50 at human 5-HT2C receptor came to 1490 nM. Besides, the Ki in experiment [1] came out at 23 nM.

With `CC(C)(C)c1cc(Cl)cc2c1OC(CN)C2` (racemic) [Example 27, (±)-1-(7-tert-butyl-5-chloro-2,3-dihydro-1-benzofuran-2-yl)methanamine], the Emax on human 5-HT2C receptor (setting [2]) turned out to be 80%. Also, on human 5-HT2C receptor, the concentration giving a half-maximal response (EC50) was 2020 nM. In experiment [1], the inhibitory constant (Ki) is 39 nM.

In the case of `CNCC1Cc2cc(C)cc(-c3c(Cl)cccc3Cl)c2O1` (racemic) [Example 490, (±)-{[7-(2,6-dichlorophenyl)-5-methyl-2,3-dihydro-1-benzofuran-2-yl]methyl}methylamine], the Emax at human 5-HT2C receptor (setting [2]) came out at 100%. Also, the EC50 at human 5-HT2C receptor was 6 nM. Further, in experiment [1], the Ki came to 1 nM.

On to `NCC1Cc2cccc(-c3ccccc3Cl)c2O1` (single isomer, unassigned; (-)) [Example 129, (−)-1-[7-(2-chlorophenyl)-2,3-dihydro-1-benzofuran-2-yl]methanamine], for which the Emax at human 5-HT2C receptor (setting [2]) stood at 100%. Besides, at human 5-HT2C receptor, the concentration giving a half-maximal response (EC50) turned out to be 0.2 nM. Further, in experiment [1], the Ki worked out at 0.3 nM.

On to `CC(C)(C)c1cc(Cl)cc2c1OC(CN)C2` (single isomer, unassigned; (-)) [Example 28, (−)-1-(7-tert-butyl-5-chloro-2,3-dihydro-1-benzofuran-2-yl)methanamine], for which the Emax on human 5-HT2C receptor (setting [2]) was found to be 90%. Further, the concentration giving a half-maximal response (EC50) on human 5-HT2C receptor came to 77 nM. In addition, the Ki in experiment [1] worked out at 16 nM.

Regarding `COc1cc2c(c(-c3cc(F)ccc3F)c1)OC(CN)C2` (racemic) [Example 366, (±)-{[7-(2,5-difluorophenyl)-5-methoxy-2,3-dihydro-1-benzofuran-2-yl]methyl}amine], the Emax at human 5-HT2C receptor (setting [2]) amounted to 80%. Moreover, the EC50 at human 5-HT2C receptor is 394 nM. Also, the Ki in experiment [1] was determined as 13 nM.

With `CNCC1Cc2cc(OC)cc(-c3ccccc3Cl)c2O1` (racemic) [Example 492, (±)-{[7-(2-chlorophenyl)-5-methoxy-2,3-dihydro-1-benzofuran-2-yl]methyl}methylamine], the Emax on human 5-HT2C receptor (setting [2]) was determined as 80%. In addition, the EC50 on human 5-HT2C receptor is 7 nM. Also, the Ki in experiment [1] came to 3.1 nM.

As for `Cc1cccc(-c2cccc3c2OC(CN)C3)c1` (single isomer, unassigned; (-)) [Example 43, (−)-1-[7-(3-methylphenyl)-2,3-dihydro-1-benzofuran-2-yl]methanamine], the EC50 on human 5-HT2C receptor stood at 748 nM. Moreover, the “5-HT2C Function Emax (%)” value on human 5-HT2C receptor (setting [3]) stood at 80%. The Ki in experiment [1] is 100 nM.

Consider `Cc1ccccc1-c1c(F)ccc2c1OC(CN)C2` (racemic) [Example 395, (±)-{[6-fluoro-7-(2-methylphenyl)-2,3-dihydro-1-benzofuran-2-yl]methyl}amine], for which the Emax at human 5-HT2C receptor (setting [2]) is 90%. In addition, the EC50 at human 5-HT2C receptor was determined as 0.4 nM. The Ki in experiment [1] turned out to be 0.3 nM.

Regarding `NCC1Cc2cc(Cl)cc(-c3ccoc3)c2O1` (racemic) [Example 243, (±)-{[5-chloro-7-(3-furyl)-2,3-dihydro-1-benzofuran-2-yl]methyl}amine], on human 5-HT2C receptor (setting [2]), the Emax is 90%. In addition, at human 5-HT2C receptor, the EC50 turned out to be 50 nM. Moreover, the inhibition constant (Ki) in experiment [1] worked out at 0.25 nM.

As for `COc1cccc(-c2cc(C(F)(F)F)cc3c2OC(CN)C3)c1OC` (racemic) [Example 331, (±)-{[7-(2,3-dimethoxyphenyl)-5-(trifluoromethyl)-2,3-dihydro-1-benzofuran-2-yl]methyl}amine], at human 5-HT2C receptor (setting [2]), the Emax was 80%. In addition, the EC50 on human 5-HT2C receptor stood at 271 nM. Moreover, in experiment [1], the Ki worked out at 38 nM.

Take `CNCC1Cc2cc(OC)cc(-c3cccc(C)c3C)c2O1` (racemic) [Example 496, (±)-{[7-(2,3-dimethylphenyl)-5-methoxy-2,3-dihydro-1-benzofuran-2-yl]methyl}methylamine]: the Emax on human 5-HT2C receptor (setting [2]) came to 60%. Further, at human 5-HT2C receptor, the EC50 amounted to 510 nM. Also, the Ki in experiment [1] is 46 nM.

With `CNCC1Cc2cccc(-c3ccccc3Cl)c2O1` (single isomer, unassigned; (+)) [Example 410, (+)-N-methyl-1-[7-(2-chlorophenyl)-2,3-dihydro-1-benzofuran-2-yl]methanamine], the Emax on human 5-HT2C receptor (setting [2]) came to 90%. At human 5-HT2C receptor, the EC50 was determined as 0.05 nM. In addition, the inhibition constant (Ki) in experiment [1] came out at 0.08 nM.

As for `CNCC1Cc2ccc(F)c(-c3ccccc3Cl)c2O1` (racemic) [Example 402, (±)-{[6-fluoro-7-(2-chlorophenyl)-2,3-dihydro-1-benzofuran-2-yl]methyl}methylamine], the Emax at human 5-HT2C receptor (setting [2]) turned out to be 90%. Further, the concentration giving a half-maximal response (EC50) on human 5-HT2C receptor is 0.1 nM. In experiment [1], the Ki was 0.24 nM.

The record behind these values is patent US7435837B2, “Dihydrobenzofuranyl alkanamine derivatives and methods for using same” (Wyeth, priority 2003, dated 2008).
